# Results taken from patent publication US10888569B1, “Methods and compositions for treating cancer” (THE UNIVERSITY OF CHICAGO, priority 2017, dated 2021).
# Entries after “also recorded” stand apart in the source; their conditions may differ.
# What was measured:
# [1] = test system: NAD+/NADH in shBACH1 TNBC cells; test: NAD/NADH-Glo measurement; format: cell-based, human; details: pyruvate 2.5 mM added to growth media
# Procedure: NAD(H) was measured using the NAD/NADH-Glo Assay kit (Promega) in accordance with the manufacturer's protocol. Lactate produced by cells were measured using the media that 5×10^5 cells were plated on 6 well plates in 2 ml media containing 1.25 mM glucose for 3 days or overnight. Harvested media was used for L-Lactate Assay Kit I (Eton Bioscience). For glucose consumption measurement, media from the cells cultured in 12 well plates were freshly replenished with media containing 5 mM glucose and collected after 21 hours for glucose measurement using Glucose Assay Kit I (Eton Bioscience).
# [2] = Cell viability (calcein AM) of non-malignant mammary epithelial cells; format: cell-based, human; details: human, non-malignant mammary epithelial cells (184A1 and MCF10A), read-out: reduction of cell viability of non-malignant mammary epithelial cells
# Procedure: (§1) Breast cancer cells (5,000 cells/well) and non-malignant mammary epithelial cells (8,000 cells/well) were plated on 96-well plates to observe growth of cells every 4 hours by phase contrast imaging using an IncuCyte Zoom Live Cell Analysis system (Essen Bioscience). After 24 hours of plating, inhibitors were added and monitored until control cells reached 100% confluent. To determine cell viability, cells were seeded in black walled 96-well plates overnight and treated with inhibitors for 48 hours. Calcein AM (R&D system) in PBS was then added and incubated for 1 hour at 37° C. Fluorescence was determined using a Victor3 plate reader (PerkinElmer) with excitation at 420 nm and emission at 520 nm. The absorbance was used to reflect live cell numbers and was normalized to those in control with vehicles and shown as relative viability (%).
# [3] = test system: TNBC cells (BM1, MB436, MB468, BT549); format: cell-based, human
# Procedure: TNBC cell lines stably knocked down with lenti-viral shRNA for BACH1 were constructed and maintained as described previously. Gene expression analysis of cultured cells and isolated tumor tissues used a Reverse transcriptase kit followed by Roche96 cycler for real time mRNA quantification and Lycor imaging for immunoblotting. For in vitro cell viability assay with mitochondrial inhibitors, TNBC cells (2×10^3-5×10^3/well) seeded on 96 well plates overnight with culture media (DMEM with 25 mM Glucose) were treated with inhibitors in fresh culture media (DMEM with 1.25 mM Glucose) for 48 and 72 hours and stained with calcein AM and/or monitored for cellular confluency using an IncuCyte Zoom Live Cell Analysis system. Extracellular flux analyzer was used to assay metabolic phenotypes of BACH1-depleted TNBC cells and TNBC cells that are treated with hemin overnight before assays. For bioinformatics analysis using primary patient data cohort (TCGA), cBioportal and R were used.
# as §1
# [4] = test system: non-malignant mammary epithelial cells (184A1 and MCF10A); test: Cell viability (calcein AM) of non-malignant mammary epithelial cells; format: cell-based, human; details: 48 hours
# Procedure: as §1
# [5] = test system: MB436-shBACH1 and BM1-shBACH1 (and shCont) xenograft TNBC tumors; test: BACH1-depleted xenograft TNBC tumors treated with metformin; format: in vivo, mouse
# Procedure: Two million human breast cancer cells (MDA-MB-436-shCont, MDA-MB-436-shBACH1, BM1-shBACH1, or BM1-shCont) in 100 μl PBS were injected into the mammary fat pads of 5 to 6 weeks old athymic nude female mice (Charles River Laboratories). When tumors were about 20-30 or 50 mm^3 in volume, hemin (50 mg/kg/day) or vehicle (20 mM NaOH in phosphate buffered saline) was injected intraperitoneally for 10 days prior to metformin treatment for 8 weeks. Metformin (200 mg/kg for MDA-MB-436 cells or 300 mg/kg for BM1-cells) was provided in drinking water ad libidum. Tumor growth was monitored weekly by caliper measurement in two dimensions to generate ellipsoid volumes using an equation of vol.=0.4×(L×W^2).
# [6] = test system: C3(1)-TAg tumors; test: Transgenic TNBC mouse model C3(1)-TAg treated with metformin; format: in vivo; details: metformin 200 mg/kg/day, absence of hemin; very low BACH1 expression
# Procedure: For a transgenic TNBC mouse model, C3(1)-TAg, mice (n=5/group) were treated with metformin (200 mg/kg/day), after 10 days of mice developed palpable tumors (about 25 mm^3), at age of 15 weeks. Tumor volume was assayed by caliper measurement twice per week.
# [7] = test system: MB436 xenograft tumors; details: hemin 50 mg/kg/day i.p. 10 consecutive days prior to metformin 200 mg/kg
# [8] = metformin 200-300 mg/kg; cited from earlier work
# [9] = in vivo; cited from earlier work
smiles,measurement,setting,value
CC(=O)C(=O)O [pyruvate],NAD+ levels,[1],increased
C=C(C)[C@H]1Cc2c(ccc3c2O[C@@H]2COc4cc(OC)c(OC)cc4[C@@H]2C3=O)O1 [rotenone],cytotoxicity at 48 h,[2],25 to 50%
CN(C)C(=N)N=C(N)N [metformin],metformin response on overexpression of wt BACH1 in MB436-shBACH1 cells,[3],generated a metformin-resistance phenotype
same,resistance to metformin on expression of Mut-Bach1 following heme treatment,[3]; BM1-shBACH1 and MB436-shBACH1 cells,restored resistance to metformin
same,sensitivity to metformin on BACH knockdown,[3]; MB436 or BM1 cells,increased sensitivity to metformin treatment
same,inhibitory effect of metformin after addition of pyruvate to growth media,"[3]; pyruvate 2.5 mM, shBACH1 TNBC cells",completely rescued the inhibitory effect of metformin
same,metformin resistance and cell growth after silencing COX15 or UQCRC1,[3]; siRNA for COX15 or UQCRC1 in BM1-shBACH1 cells,completely restored metformin resistance
same,viability of non-malignant mammary epithelial cells,[4],did not alter the viability
same,growth of BM1 xenograft tumors expressing shBACH1,[5]; metformin 300 mg/kg/day,Comparable results
same,growth of TNBC tumors stably expressing shBACH1,"[5]; metformin 200-300 mg/kg in drinking water, within a week of administration, MB436-shBACH1",drastically suppressed; also recorded: reduction of MB436-shBACH1 tumor volume
same,control tumor growth,"[5]; metformin alone, 200-300 mg/kg in drinking water, control (shCont) xenografts",no effect on control tumor growth
same,tumor-free mice,[5]; shBACH1 MB436 xenograft mice following metformin treatment,a significant fraction of shBACH xenograft mice were tumor-free; also recorded: a significant fraction of shBACH1 MB436 xenograft mice were tumor-free
same,sensitivity of C3(1)-TAg mice tumors,[6],highly sensitive to metformin
same,breast tumor growth / volume,[7],neither hemin nor metformin alone significantly altered tumor growth
same,mouse tumor and plasma concentrations,[8],3 to 12 µM
same,levels in metformin-treated human diabetic patients,[9],~10 µM
